Reference: patent US20240269170A1, “Treatment of Inflammatory Conditions or Diseases” (Queen Mary University of London, priority 2021, published 2024)

System: G6PI peptide induced arthritis in DBA/1 mice
Assay: G6PI peptide induced arthritis, MCTR3 treatment
Format: in vivo, mouse
Method: (A-D) K/B×N serum (100 μL via intraperitoneal injection, i.p.) was administered to C57BL/6 mice on days 0, 2 and 8 to initiate and prolong inflammatory arthritis. Mice were treated 1 μg/mouse MCTR3 or vehicle (PBS+0.1% EtOH) on day 10, 12 and 14 via intravenous (i.v.) injection. Disease course was assessed by evaluating A) clinical scores and B) paw oedema daily. Results are mean±SEM, n=9 mice per group. Statistical differences were evaluated using a Two-Way ANOVA. Arrows denote days when MCTR3 was administered. (C,D) paws were harvested on day 25, and cells liberated from the joints and the expression of phenotypic markers was evaluated on joint macrophages using flow cytometry and PLS-DA. (C) scores plot with highlighted regions denoting the clusters representing cells from each group and (D) VIP scores for each of the markers evaluated. Each dot in the score plot represents a separate mouse. (E-H) Arthritis was induced in DBA/1 mice by administration of 10 μg G6PI in CFA on Day 0. On day 24, 26 and 28 (denoted in blue arrows), mice were administered 1 μg/mouse MCTR3 or vehicle (PBS+0.1% EtOH) i.v. and (E) clinical scores and (F) paw oedema were measured. Results are mean±SEM, n=mice 7 per group from 2 separate experiments. Statistical differences were evaluated using a Two-Way ANOVA. (G-H) paws were harvested on day 36, and cells liberated from the joints and the expression of phenotypic markers was evaluated on joint macrophages using flow cytometry and PLS-DA. (G) scores plot with highlighted regions denoting the clusters representing cells from each group and (H) VIP scores for each of the markers evaluated. Each dot in the score plot represents a separate mouse.
FIG. 10: MCTR3 promotes bone and cartilage repair in arthritic mice. G6PI peptide (10 μg/mouse) in CFA was administered to DBA/1 mice ([…]) and mice were treated with either vehicle (PBS+0.1% EtOH) or 1 μg/mouse MCTR3 i.v. on day 24, 26 and 28. On day 36, hind paws were harvested for histological analysis. A) Representative images from knee joints from a vehicle and MCTR3 treated mouse stained with Safranin-O and B) quantitative analysis of Safranin O staining. Results are mean±SEM n=5 mice per group. C-D) microCT analysis was performed in vivo on day 24 and 35, to evaluate bone erosion in the arthritic knees. […] Results are mean±SEM and expressed as percent change from values obtained on day 24 for each mouse. n=4 mice per group. Statistical differences were evaluated using a Mann-Whitney U test.
We next assessed whether the protective activities of MCTR3 were retained in a model of adaptive immune system driven arthritis, using the glucose-6-phosphate isomerase peptide driven model of inflammatory arthritis (Schubert et al., 2004, J Immunol 172, 4503-4509). Here, administration of MCTR3 during the course of arthritic inflammation also led to a reduction in joint inflammation as measured by a reduction in both clinical scores and joint oedema (FIG. 1E,F). […] This shift in phenotype was linked with an upregulation of three phenotypic markers, including Arg-1 and CD11b, in cells obtained from joints of MCTR3 treated mice (FIG. 1H).
Since one of the main debilitating features of arthritis is bone erosion, we next determined whether the joint protective actions of MCTR3 also extended to the bone. For this purpose, we used microCT analysis to investigate bone volume in arthritic joints, comparing bone volumes on day 24, prior to MCTR3 treatment, to those at day 35. […] We next queried whether these bone protective activities of
G6PI peptide induced arthritis: Antigen DBA/1 mice were immunised with a G6PI emulsion (120 μL/mouse), prepared by sonication of 10 μg G6PI peptide (Sequence: IWYINCFGCETHAML; Cambridge Peptides Ltd.) in 50 μL complete Freund's adjuvant (CFA) and 50 μL DPBS^−/− per mouse (Schubert et al., 2004, J Immunol 172, 4503-4509), via intradermal injection at the base of the tail to initiate inflammatory arthritis. […]

[1] = 1 μg/mouse i.v. on day 24, 26 and 28
[2] = 1 μg/mouse i.v., day 36, flow cytometry

## CC/C=C\C/C=C\C[C@H](O)[C@@H](/C=C/C=C/C=C\C/C=C\CCC(=O)O)SC[C@H](N)C(=O)O [MCTR3, 13R-cysteinyl, 14S-hydroxy-4Z, 7Z, 9E, 11E, 13R, 14S, 16Z, 19Z-docosahexaenoic acid]
[1]
  clinical scores: reduction
  joint oedema: reduction
1 μg/mouse i.v. on day 24, 26 and 28, day 36
  safranin O-staining in joints (glycosaminoglycan content): significantly higher
1 μg/mouse i.v., day 35 compared with day 24
  bone volume in arthritic knees (microCT): increased
[2]
  Arg-1 in joint macrophages: upregulation
  CD11b in joint macrophages: upregulation
